Results from PubChem BioAssay (NCI).
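Method: 48-hour compound exposure of cells in 96-well plates, five concentrations, linear interpolation of endpoints. The concentration for full growth arrest is given as TGI.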

Experiments:
Experiment in all cases: NCI-60 cell line screen, 48 h
UACC-257 melanoma = test system: UACC-257 melanoma
SK-OV-3 ovarian = test system: SK-OV-3 ovarian
MDA-MB-435 = test system: MDA-MB-435
U251 CNS = test system: U251 CNS
TK-10 renal = test system: TK-10 renal
HOP-62 NSCLC = test system: HOP-62 NSCLC
LOX IMVI melanoma = test system: LOX IMVI melanoma
MCF7 breast = test system: MCF7 breast
HCT-15 colon = test system: HCT-15 colon
PC-3 prostate = test system: PC-3 prostate
NCI-H522 lung = test system: NCI-H522 lung
SK-MEL-2 melanoma = test system: SK-MEL-2 melanoma
MDA-N = test system: MDA-N
NCI-H23 lung = test system: NCI-H23 lung
IGROV1 ovarian = test system: IGROV1 ovarian
COLO 205 colon = test system: COLO 205 colon
NCI/ADR-RES ovarian = test system: NCI/ADR-RES ovarian
MDA-MB-231 breast = test system: MDA-MB-231 breast
786-0 renal = test system: 786-0 renal
ACHN renal = test system: ACHN renal
RPMI-8226 leukemia = test system: RPMI-8226 leukemia
M14 melanoma = test system: M14 melanoma
CCRF-CEM leukemia = test system: CCRF-CEM leukemia
HCC-2998 colon = test system: HCC-2998 colon
EKVX NSCLC = test system: EKVX NSCLC
MALME-3M melanoma = test system: MALME-3M melanoma
NCI-H226 lung = test system: NCI-H226 lung
SK-MEL-28 melanoma = test system: SK-MEL-28 melanoma
OVCAR-4 ovarian = test system: OVCAR-4 ovarian
SN12C renal = test system: SN12C renal
BT-549 breast = test system: BT-549 breast
HCT-116 colon = test system: HCT-116 colon
SNB-75 CNS = test system: SNB-75 CNS
SF-268 CNS = test system: SF-268 CNS
SF-295 CNS = test system: SF-295 CNS
OVCAR-3 ovarian = test system: OVCAR-3 ovarian
T-47D breast = test system: T-47D breast
A549 NSCLC = test system: A549 NSCLC
NCI-H460 lung = test system: NCI-H460 lung
SF-539 CNS = test system: SF-539 CNS
CAKI-1 renal = test system: CAKI-1 renal
OVCAR-5 ovarian = test system: OVCAR-5 ovarian
HOP-92 NSCLC = test system: HOP-92 NSCLC
SR leukemia = test system: SR leukemia
A498 renal = test system: A498 renal
RXF 393 renal = test system: RXF 393 renal
UO-31 renal = test system: UO-31 renal
MOLT-4 leukemia = test system: MOLT-4 leukemia
KM12 colon = test system: KM12 colon
SNB-19 CNS = test system: SNB-19 CNS
SK-MEL-5 melanoma = test system: SK-MEL-5 melanoma
OVCAR-8 ovarian = test system: OVCAR-8 ovarian
K-562 leukemia = test system: K-562 leukemia
SW-620 colon = test system: SW-620 colon

CCCCC(=O)Nc1ccc2cc(C(=O)OC)c(ON3C(=O)c4ccccc4C3=O)nc2n1
TGI (UACC-257 melanoma): > 100 µM
TGI (SK-OV-3 ovarian): > 100 µM
TGI (MDA-MB-435): > 100 µM
TGI (U251 CNS): > 100 µM
TGI (TK-10 renal): 46.2 µM
TGI (HOP-62 NSCLC): 37.6 µM
TGI (LOX IMVI melanoma): > 100 µM
TGI (MCF7 breast): > 100 µM
TGI (HCT-15 colon): > 100 µM
TGI (PC-3 prostate): > 100 µM
TGI (NCI-H522 lung): 58.5 µM
TGI (SK-MEL-2 melanoma): > 100 µM
TGI (MDA-N): 80.7 µM
TGI (NCI-H23 lung): > 100 µM
TGI (IGROV1 ovarian): 41 µM
TGI (COLO 205 colon): > 100 µM
TGI (NCI/ADR-RES ovarian): > 100 µM
TGI (MDA-MB-231 breast): > 100 µM
TGI (786-0 renal): 36.1 µM
TGI (ACHN renal): > 100 µM
TGI (RPMI-8226 leukemia): > 100 µM
TGI (M14 melanoma): 43.3 µM
TGI (CCRF-CEM leukemia): > 100 µM
TGI (HCC-2998 colon): > 100 µM
TGI (EKVX NSCLC): > 100 µM
TGI (MALME-3M melanoma): 38.5 µM
TGI (NCI-H226 lung): 60.2 µM
TGI (SK-MEL-28 melanoma): 53.5 µM
TGI (OVCAR-4 ovarian): 81.2 µM
TGI (SN12C renal): > 100 µM
TGI (BT-549 breast): > 100 µM
TGI (HCT-116 colon): 45.9 µM
TGI (SNB-75 CNS): 88.2 µM
TGI (SF-268 CNS): 81.2 µM
TGI (SF-295 CNS): > 100 µM
TGI (OVCAR-3 ovarian): > 100 µM
TGI (T-47D breast): > 100 µM
TGI (A549 NSCLC): > 100 µM
TGI (NCI-H460 lung): 51.4 µM
TGI (SF-539 CNS): 43.5 µM
TGI (CAKI-1 renal): 52.4 µM
TGI (OVCAR-5 ovarian): 98.3 µM
TGI (HOP-92 NSCLC): 65.3 µM
TGI (SR leukemia): > 100 µM
TGI (A498 renal): > 100 µM
TGI (RXF 393 renal): 52.3 µM
TGI (UO-31 renal): 44.4 µM
TGI (MOLT-4 leukemia): > 100 µM
TGI (KM12 colon): > 100 µM
TGI (SNB-19 CNS): > 100 µM
TGI (SK-MEL-5 melanoma): > 100 µM
TGI (OVCAR-8 ovarian): 58.4 µM
TGI (K-562 leukemia): > 100 µM
TGI (SW-620 colon): > 100 µM
